The NIST ThermoML archive (doi:10.1016/j.fluid.2014.10.031)
± gives the expanded uncertainty stated by the source.

Columns and labels:
[1] = Crystal; DTA
[2] = Molar enthalpy of transition or fusion; details: Crystal; DSC

SMILES: COc1cc(O)c2c(c1)oc(=O)c1c3cc(O)c(O)cc3oc21 [wedelolactone]
- Normal melting temperature [1]: 316.37 ± 24 °C
- Molar enthalpy of transition or fusion [2]: 10.9 ± 0.478 kcal/mol
